Measurements from patent publication US11174268B2, “Benzenesulfonamide compouds and their use as therapeutic agents” (Xenon Pharmaceuticals Inc., priority 2016, dated 2021).
Structures can show the parent of a compound that is named as a salt.

Columns and labels:
NaV1.6 [1] = biological target: T1, NaV1.6 (Homo sapiens (Human), UniProt Q9UQD0); assay: Sodium Influx Assay (Flux), NaV1.6; format: cell-based; conditions: Trex HEK293 cells, ANG2 dye, inactivated state;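 note: Tetracycline-induced cells, compounds applied for one hour at room temperature with modulators holding channels open, IC50 from percent inhibition of sodium influx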
T1 sequence (Q9UQD0 whole entry): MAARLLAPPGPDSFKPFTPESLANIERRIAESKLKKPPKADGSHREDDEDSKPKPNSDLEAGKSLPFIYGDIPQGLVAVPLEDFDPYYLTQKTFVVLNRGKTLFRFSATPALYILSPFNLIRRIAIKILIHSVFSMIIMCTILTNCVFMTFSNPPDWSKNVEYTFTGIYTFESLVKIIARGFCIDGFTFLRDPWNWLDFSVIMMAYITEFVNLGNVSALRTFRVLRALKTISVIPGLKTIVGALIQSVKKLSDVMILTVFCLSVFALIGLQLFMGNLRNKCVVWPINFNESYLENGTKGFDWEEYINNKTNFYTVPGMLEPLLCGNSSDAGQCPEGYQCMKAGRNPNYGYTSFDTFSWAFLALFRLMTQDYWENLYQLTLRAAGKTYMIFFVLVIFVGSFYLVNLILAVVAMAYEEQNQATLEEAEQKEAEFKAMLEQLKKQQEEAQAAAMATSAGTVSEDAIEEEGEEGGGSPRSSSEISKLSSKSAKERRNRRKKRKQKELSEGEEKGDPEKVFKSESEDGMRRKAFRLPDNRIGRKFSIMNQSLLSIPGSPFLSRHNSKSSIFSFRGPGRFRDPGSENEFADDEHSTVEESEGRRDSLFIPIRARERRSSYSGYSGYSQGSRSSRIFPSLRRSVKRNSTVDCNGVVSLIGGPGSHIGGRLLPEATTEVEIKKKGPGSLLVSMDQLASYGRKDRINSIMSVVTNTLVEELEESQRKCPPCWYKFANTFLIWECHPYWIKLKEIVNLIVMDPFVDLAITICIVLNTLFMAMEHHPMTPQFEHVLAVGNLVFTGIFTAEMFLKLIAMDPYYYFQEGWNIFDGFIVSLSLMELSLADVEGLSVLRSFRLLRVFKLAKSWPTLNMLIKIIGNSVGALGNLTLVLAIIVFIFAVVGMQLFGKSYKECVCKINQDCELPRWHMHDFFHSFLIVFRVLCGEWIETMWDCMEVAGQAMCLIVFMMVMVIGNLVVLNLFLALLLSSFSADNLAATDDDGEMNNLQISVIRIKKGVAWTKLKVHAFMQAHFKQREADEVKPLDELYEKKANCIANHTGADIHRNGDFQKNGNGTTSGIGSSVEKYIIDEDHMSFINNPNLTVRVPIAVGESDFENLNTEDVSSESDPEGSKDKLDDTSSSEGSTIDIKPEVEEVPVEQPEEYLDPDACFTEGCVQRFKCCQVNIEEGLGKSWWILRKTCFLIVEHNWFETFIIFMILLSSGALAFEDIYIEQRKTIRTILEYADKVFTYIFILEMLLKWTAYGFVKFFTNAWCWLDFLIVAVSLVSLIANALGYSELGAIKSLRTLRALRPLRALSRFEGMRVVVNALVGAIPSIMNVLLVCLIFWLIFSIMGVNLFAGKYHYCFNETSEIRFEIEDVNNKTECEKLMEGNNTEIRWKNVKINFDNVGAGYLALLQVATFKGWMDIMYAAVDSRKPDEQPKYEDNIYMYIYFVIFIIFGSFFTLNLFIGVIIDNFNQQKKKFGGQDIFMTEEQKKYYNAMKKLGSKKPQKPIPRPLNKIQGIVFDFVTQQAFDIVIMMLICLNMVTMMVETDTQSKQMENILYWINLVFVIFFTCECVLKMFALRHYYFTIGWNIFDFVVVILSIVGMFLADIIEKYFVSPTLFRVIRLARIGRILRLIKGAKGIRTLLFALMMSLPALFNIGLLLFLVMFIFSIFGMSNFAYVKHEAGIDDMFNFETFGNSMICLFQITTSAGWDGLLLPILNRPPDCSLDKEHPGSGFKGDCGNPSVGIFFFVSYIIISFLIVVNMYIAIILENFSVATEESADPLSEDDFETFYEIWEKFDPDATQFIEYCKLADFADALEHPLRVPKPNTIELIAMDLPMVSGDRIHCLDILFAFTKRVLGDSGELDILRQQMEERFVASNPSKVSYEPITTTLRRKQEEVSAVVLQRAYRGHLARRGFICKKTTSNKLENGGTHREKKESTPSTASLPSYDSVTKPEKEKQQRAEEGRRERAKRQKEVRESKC

NaV1.6 [2] = biological target: T1, NaV1.6; assay: Electrophysiological Assay (EP), patch voltage clamp, NaV1.6; format: cell-based; conditions: HEK-293 cells, whole-cell patch clamp;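 note: sodium current recorded at ambient temperature, channels held inactivated then briefly repolarized to −150 mV for 20 ms before a test pulse, control currents in 0.5% DMSO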
NaV1.5 = NaV1.5 (Homo sapiens (Human), UniProt Q14524); assay: Sodium Influx Assay (Flux), NaV1.5; conditions: read-out: Flux NaV1.5 IC50; Trex HEK293 cells, ANG2 dye, inactivated state
Sequence of NaV1.5 (Q14524 other isoform, or with tags, fused parts or gaps): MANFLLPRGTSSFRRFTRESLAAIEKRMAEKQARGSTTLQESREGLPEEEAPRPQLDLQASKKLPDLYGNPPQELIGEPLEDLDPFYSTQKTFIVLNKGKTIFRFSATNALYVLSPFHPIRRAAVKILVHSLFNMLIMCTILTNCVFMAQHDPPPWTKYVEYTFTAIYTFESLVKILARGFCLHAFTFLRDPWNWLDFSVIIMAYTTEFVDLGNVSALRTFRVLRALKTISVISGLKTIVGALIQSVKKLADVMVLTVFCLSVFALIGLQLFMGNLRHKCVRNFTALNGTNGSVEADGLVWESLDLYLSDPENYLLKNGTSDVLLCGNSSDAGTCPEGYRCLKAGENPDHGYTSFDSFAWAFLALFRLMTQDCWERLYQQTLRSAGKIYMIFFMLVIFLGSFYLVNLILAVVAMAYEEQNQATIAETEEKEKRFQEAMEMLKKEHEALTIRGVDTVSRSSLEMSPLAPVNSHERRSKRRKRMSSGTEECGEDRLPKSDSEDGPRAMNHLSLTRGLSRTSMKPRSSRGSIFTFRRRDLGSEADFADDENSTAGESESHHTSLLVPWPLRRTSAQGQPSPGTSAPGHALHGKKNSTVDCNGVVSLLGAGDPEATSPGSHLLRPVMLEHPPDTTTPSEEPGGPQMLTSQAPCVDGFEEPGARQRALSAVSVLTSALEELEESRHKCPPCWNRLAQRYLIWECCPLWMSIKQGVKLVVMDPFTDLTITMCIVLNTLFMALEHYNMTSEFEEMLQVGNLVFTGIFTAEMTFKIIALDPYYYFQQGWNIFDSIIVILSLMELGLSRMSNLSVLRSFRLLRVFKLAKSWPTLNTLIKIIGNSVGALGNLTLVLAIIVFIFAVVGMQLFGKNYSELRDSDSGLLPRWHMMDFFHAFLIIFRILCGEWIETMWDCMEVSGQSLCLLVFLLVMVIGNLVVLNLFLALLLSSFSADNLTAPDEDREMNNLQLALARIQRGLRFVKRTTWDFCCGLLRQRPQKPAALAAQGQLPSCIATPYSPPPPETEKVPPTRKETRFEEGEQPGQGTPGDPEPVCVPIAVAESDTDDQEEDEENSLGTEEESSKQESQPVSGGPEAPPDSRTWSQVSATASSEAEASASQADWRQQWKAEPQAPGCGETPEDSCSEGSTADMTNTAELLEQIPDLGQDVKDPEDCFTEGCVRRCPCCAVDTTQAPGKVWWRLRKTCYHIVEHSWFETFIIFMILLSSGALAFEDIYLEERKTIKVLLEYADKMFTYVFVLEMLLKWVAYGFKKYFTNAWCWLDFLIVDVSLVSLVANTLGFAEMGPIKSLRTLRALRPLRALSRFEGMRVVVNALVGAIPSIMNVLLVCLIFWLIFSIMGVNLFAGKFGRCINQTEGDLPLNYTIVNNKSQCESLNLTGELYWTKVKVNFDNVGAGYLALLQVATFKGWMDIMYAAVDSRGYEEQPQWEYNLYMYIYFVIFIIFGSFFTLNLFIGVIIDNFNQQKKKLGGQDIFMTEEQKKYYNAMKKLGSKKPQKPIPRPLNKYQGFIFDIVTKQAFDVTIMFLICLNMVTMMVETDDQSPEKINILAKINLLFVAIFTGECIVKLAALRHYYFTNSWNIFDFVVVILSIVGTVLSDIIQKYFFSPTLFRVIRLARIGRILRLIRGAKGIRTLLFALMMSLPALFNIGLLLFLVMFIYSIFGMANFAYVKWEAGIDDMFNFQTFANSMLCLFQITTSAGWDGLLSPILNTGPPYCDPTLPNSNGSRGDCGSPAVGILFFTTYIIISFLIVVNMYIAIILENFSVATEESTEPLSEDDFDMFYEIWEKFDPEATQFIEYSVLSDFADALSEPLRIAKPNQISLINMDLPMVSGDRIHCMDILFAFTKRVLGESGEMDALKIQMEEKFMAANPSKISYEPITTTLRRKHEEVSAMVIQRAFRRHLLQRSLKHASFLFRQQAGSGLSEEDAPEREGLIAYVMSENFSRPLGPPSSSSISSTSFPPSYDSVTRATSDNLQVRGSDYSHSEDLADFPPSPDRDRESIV

NaV1.1 = NaV1.1 (Homo sapiens (Human), UniProt P35498); assay: Sodium Influx Assay (Flux), NaV1.1; format: cell-based; conditions: Trex HEK293 cells, ANG2 dye, inactivated state;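 note: channels co-expressed with human β1 subunit and held open by modulators, cells exposed to compounds for one hour at room temperature, IC50 from percent inhibition of influx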

Compound	IC50 (NaV1.6 [1]) [µM]	IC50 (NaV1.6 [2]) [µM]	IC50 (NaV1.1) [µM]	IC50 (NaV1.5) [µM]
CC[C@H](Nc1ccc(S(=O)(=O)Nc2ncns2)cc1Cl)c1ccccc1 [Example 32, (S)-3-chloro-4-((1-phenylpropyl)amino)-N-(1,2,4-thiadiazol-5-yl)benzenesulfonamide]	0.092	0.023	1.06	12.8
CCC(Nc1cc(F)c(S(=O)(=O)Nc2ncns2)cc1F)c1ccccc1 (centres unmarked) [Example 85, 2,5-difluoro-4-((1-phenylpropyl)amino)-N-(1,2,4-thiadiazol-5-yl)benzenesulfonamide]	0.107	0.078	0.516	30
CCC(Nc1cc(F)c(S(=O)(=O)Nc2cccc(F)n2)cc1Cl)c1ccccc1 (centres unmarked) [Example 86, 5-chloro-2-fluoro-N-(6-fluoropyridin-2-yl)-4-((1-phenylpropyl)amino)benzenesulfonamide]	4.06	0.558	16.6	12.7
O=S(=O)(Nc1cscn1)c1ccc(NCc2c(F)ccc(F)c2CN2CCC2)c(F)c1F [Example 213, 4-((2-(azetidin-1-ylmethyl)-3,6-difluorobenzyl)amino)-2,3-difluoro-N-(thiazol-4-yl)benzenesulfonamide 2,2,2-trifluoroacetate]	0.156	0.021	30	30
O=S(=O)(Nc1cscn1)c1c(F)cc(NCc2c(F)ccc(F)c2CN2CCC2)c(F)c1F [Example 215, 4-((2-(azetidin-1-ylmethyl)-3,6-difluorobenzyl)amino)-2,3,6-trifluoro-N-(thiazol-4-yl)benzenesulfonamide 2,2,2-trifluoroacetate]	0.021	0.003	10.3	21.5
Cc1cc(NCc2c(F)cccc2CN2CC(C)(C)C2)c(F)c(F)c1S(=O)(=O)Nc1cscn1 [Example 314, 4-((2-((3,3-dimethylazetidin-1-yl)methyl)-6-fluorobenzyl)amino)-2,3-difluoro-6-methyl-N-(thiazol-4-yl)benzenesulfonamide 2,2,2-trifluoroacetate]	0.032		30	30
Cc1cc(-c2cccc(F)c2CNc2cc(F)c(S(=O)(=O)Nc3cscn3)c(F)c2)ccn1 [Example 317, 2,6-difluoro-4-((2-fluoro-6-(2-methylpyridin-4-yl)benzyl)amino)-N-(thiazol-4-yl)benzenesulfonamide formate]	0.328	0.982	3.91	30
O=S(=O)(Nc1cscn1)c1c(F)cc(NCc2ccccc2CCN2CC(F)(F)C2)cc1F [Example 319, 4-((2-(2-(3,3-difluoroazetidin-1-yl)ethyl)benzyl)amino)-2,6-difluoro-N-(thiazol-4-yl)benzenesulfonamide]	2.31		18	20
O=S(=O)(Nc1cscn1)c1c(F)cc(NCc2ccccc2CCN2CC(F)C2)cc1F [Example 320, 4-((2-(2-(3-fluoroazetidin-1-yl)ethyl)benzyl)amino)-2,6-difluoro-N-(thiazol-4-yl)benzenesulfonamide formate]	0.055		6.5	17.9
O=S(=O)(Nc1cscn1)c1cc(Cl)c(N[C@@H]2C[C@H](N3CCC3)c3ccccc32)cc1F [Example 321, 4-(((1R,3S)-3-(azetidin-1-yl)-2,3-dihydro-1H-inden-1-yl)amino)-5-chloro-2-fluoro-N-(thiazol-4-yl)benzenesulfonamide formate]	0.091		4.77	28.1
C=Cc1cc(S(=O)(=O)Nc2cscn2)c(F)cc1NCc1ccccc1CN1CCC1 [Example 323, 4-((2-(azetidin-1-ylmethyl)benzyl)amino)-2-fluoro-N-(thiazol-4-yl)-5-vinylbenzenesulfonamide formate]	0.518		9.38	15
O=S(=O)(Nc1ncns1)c1c(F)cc(NCc2ccccc2CN2CCC2)c(Cl)c1F [Example 327, 4-((2-(azetidin-1-ylmethyl)benzyl)amino)-3-chloro-2,6-difluoro-N-(1,2,4-thiadiazol-5-yl)benzenesulfonamide formate]	0.003	0.001	4.44	30
O=S(=O)(Nc1nccs1)c1cc(Cl)c(N[C@H](c2ccccc2F)C(F)(F)F)cc1F [Example 332, (R)-5-chloro-2-fluoro-N-(thiazol-2-yl)-4-((2,2,2-trifluoro-1-(2-fluorophenyl)ethyl)amino)benzenesulfonamide]	0.275		0.831	7.24
CC[C@H](Oc1cc(F)c(S(=O)(=O)Nc2cscn2)cc1Cl)c1ccccc1F [Example 338, (S)-5-chloro-2-fluoro-4-(1-(2-fluorophenyl)propoxy)-N-(thiazol-4-yl)benzenesulfonamide]	1.62		5.71	2.65
(R)-5-chloro-2-fluoro-4-((1-(isoquinolin-8-yl)ethyl)amino)-N-(thiazol-2-yl)benzenesulfonamide [Example 13]	5.89		30	30
(S)-5-chloro-2-fluoro-4-((1-(isoquinolin-8-yl)ethyl)amino)-N-(thiazol-2-yl)benzenesulfonamide [Example 12]	1.98		30	30

More lines, main results first:

IC50 (NaV1.6 [1]) [µM]	IC50 (NaV1.6 [2]) [µM]	IC50 (NaV1.1) [µM]	Compound	IC50 (NaV1.5) [µM]
0.078	0.023	25.8	COC1(C)CN(Cc2cccc(F)c2CNc2cc(F)c(S(=O)(=O)Nc3cscn3)c(F)c2)C1 [Example 172, 2,6-difluoro-4-((2-fluoro-6-((3-methoxy-3-methylazetidin-1-yl)methyl)benzyl)amino)-N-(thiazol-4-yl)benzenesulfonamide formate]	30
0.025	0.012	9.2	O=S(=O)(Nc1ccsn1)c1c(F)cc(NCc2c(F)cccc2CN2CCC2)cc1F [Example 188, 4-((2-(azetidin-1-ylmethyl)-6-fluorobenzyl)amino)-2,6-difluoro-N-(isothiazol-3-yl)benzenesulfonamide 2,2,2-trifluoroacetate]	30
0.187	0.081	30	O=S(=O)(Nc1ccon1)c1c(F)cc(NCc2c(F)cccc2CN2CCC2)cc1F [Example 204, 4-((2-(azetidin-1-ylmethyl)-6-fluorobenzyl)amino)-2,6-difluoro-N-(isoxazol-3-yl)benzenesulfonamide 2,2,2-trifluoroacetate]	23.1
0.008	0.002	5.3	Cc1c(NCc2c(F)cccc2CN2CCC2)cc(F)c(S(=O)(=O)Nc2cscn2)c1F [Example 304, 4-((2-(azetidin-1-ylmethyl)-6-fluorobenzyl)amino)-2,6-difluoro-3-methyl-N-(thiazol-4-yl)benzenesulfonamide 2,2,2-trifluoroacetate]	21.2
0.01	0.011	20.3	Cc1c(NCc2ccccc2CN2CCC2)cc(F)c(S(=O)(=O)Nc2ccncn2)c1F [Example 310, 4-((2-(azetidin-1-ylmethyl)benzyl)amino)-2,6-difluoro-3-methyl-N-(pyrimidin-4-yl)benzenesulfonamide 2,2,2-trifluoroacetate]	30
0.27		30	Cc1c(NCc2c(F)cccc2CN2CCC2)ccc(S(=O)(=O)Nc2ccon2)c1F [Example 315, 4-((2-(azetidin-1-ylmethyl)-6-fluorobenzyl)amino)-2-fluoro-N-(isoxazol-3-yl)-3-methylbenzenesulfonamide 2,2,2-trifluoroacetate]	30
6.03		20.4	O=S(=O)(Nc1cnsc1)c1c(F)cc(NCc2c(F)cccc2CN2CCC2)cc1F [Example 318, 4-((2-(azetidin-1-ylmethyl)-6-fluorobenzyl)amino)-2,6-difluoro-N-(isothiazol-4-yl)benzenesulfonamide]	17.3
0.114	0.047	7.75	O=S(=O)(Nc1cccc(F)n1)c1c(F)cc(NCc2c(F)cccc2CN2CCC2)cc1F [Example 322, 4-((2-(azetidin-1-ylmethyl)-6-fluorobenzyl)amino)-2,6-difluoro-N-(6-fluoropyridin-2-yl)benzenesulfonamide formate]	30
0.647		18.9	O=S(=O)(Nc1cccc(F)n1)c1c(F)cc(NCc2ccccc2CN2CCC2)cc1F [Example 324, 4-((2-(azetidin-1-ylmethyl)benzyl)amino)-2,6-difluoro-N-(6-fluoropyridin-2-yl)benzenesulfonamide]	30
3.82	1.04	30	O=S(=O)(Nc1ccccn1)c1c(F)cc(NCc2c(F)cccc2CN2CCC2)cc1F [Example 328, 4-((2-(azetidin-1-ylmethyl)-6-fluorobenzyl)amino)-2,6-difluoro-N-(pyridin-2-yl)benzenesulfonamide]	30
0.214		8.12	Cc1cc(S(=O)(=O)Nc2cccc(F)n2)c(F)cc1NCc1ccccc1CN1CCC1 [Example 329, 4-((2-(azetidin-1-ylmethyl)benzyl)amino)-2-fluoro-N-(6-fluoropyridin-2-yl)-5-methylbenzenesulfonamide]	28.4
0.266		14.3	CC1(F)CN(Cc2cccc(F)c2CNc2cc(F)c(S(=O)(=O)Nc3ccon3)c(F)c2)C1 [Example 337, 2,6-difluoro-4-((2-fluoro-6-((3-fluoro-3-methylazetidin-1-yl)methyl)benzyl)amino)-N-(isoxazol-3-yl)benzenesulfonamide formate]	30
